Laboratory results taken from patent publication US7745604B2, “Upstream control elements of the proopiomelanocortin gene and their use” (Oregon Health & Science University, priority 2001, dated 2010).
Values joined by “and” are separate entries in the source; they are usually repeats but may differ in a detail not shown here. Equal entries are not always repeated. “Also recorded” adds a separate entry of the source. Where two headings read alike, the source gives them in different places. Non-standard residues stand in square brackets, D forms with d. No end group written: not given here.

How the values were obtained:
POMC neurons [1] = assay: Whole cell recordings of membrane potential of EGFP-labeled POMC neurons in ARC slices; type: cell-based, mouse
POMC neurons [2] = assay: Action potential frequency (firing rate) of POMC neurons, whole cell or loose cell-attached recordings; type: cell-based, mouse; conditions: for increase in frequency of action potentials (firing rate) in POMC neurons: fenfluramine 20 μM, loose-cell-attached, n=3, reversed with washout
[3] = tested on: GABAergic IPSCs in POMC neurons; assay: GABAergic IPSCs recorded in POMC neurons of ARC slices; type: cell-based, mouse
[4] = tested on: non-POMC neurons in the arcuate nucleus; assay: Membrane potential of non-fluorescent (non-POMC) neurons in the ARC; type: cell-based, mouse
hypothalamic explants = conditions: Y2A; cited from earlier work
[5] = tested on: c-fos expression in the arcuate nucleus; assay: c-fos expression in the lateral arcuate after IP injection, rat; type: in vivo; conditions: single IP injection
[6] = tested on: c-fos expression in the arcuate nucleus; assay: c-fos expression in arcuate nucleus of Pomc-EGFP mice after IP injection; type: in vivo, mouse; conditions: IP 5 μg/100 g, 2 hours
From the text: Data were obtained from 5 mice in each group. For the Pomc-EGFP mice 5 anatomically matched arcuate nucleus sections (Franklin et al., The Mouse Brain in Stereotaxic Coordinates (Academic Press, San Diego, 1997) were counted from each animal, and images acquired using a Leica TSC confocal microscope (Grove et al., Neuroscience 100:731-40, 2000).

## Clc1cncc(N2CCNCC2)n1 [MK 212, 6-Chloro-2-(1-piperazinyl)pyrazine]
POMC neurons [1]
  effect on resting membrane potential of POMC neurons: depolarized POMC neurons

## Ghrelin: known appetite stimulant; agent known to increase feeding, caloric intake, and appetite (GSSFLSPEHQRVQQRKESKKPPAKLQPR; ends and bridges not checked; UniProt Q9UBU3 24-51, looked up)
POMC neurons [2]; Ghrelin 50 nM, loose-cell-attached mode, reverses with washout
  decrease of action potential firing rate of POMC neurons: 50%
POMC neurons [1]; Ghrelin 50 nM, three minutes, whole cell, p<0.03
  mean hyperpolarization of POMC neurons: 1.47±0.7 mV
POMC neurons [1]; Ghrelin, whole cell, FIG. 12b, 34 experiments
  effect on membrane potential of POMC neurons: mildly hyperpolarizes POMC neurons
[3]; Ghrelin 50 nM, whole cell
  effect on frequency of IPSCs in POMC neurons: increase in the frequency of IPSCs; also recorded: increases the frequency of spontaneous synaptic GABA release onto POMC neurons

## leptin: adipostatic hormone
POMC neurons [2]; leptin, FIG. 3a, 77 POMC neurons
  effect on frequency of action potentials: increases the frequency of action potentials
POMC neurons [1]; 100 nM leptin, n=45
  mean±s.e.m. depolarization: 9.7±1.2 mV
POMC neurons [1]; leptin 100 nM, slow voltage ramps
  reversal potential of small inward current causing depolarization: approximately −20 mV
POMC neurons [1]; leptin 0.1-100 nM
  POMC cells depolarized of cells tested: 72 of 77
  depolarization of POMC cells: 3-30 mV
  time to depolarization after addition: 1 to 10 min and 2 to 10 min
[3]
  cells in which IPSCs were still inhibited in the presence of tetrodotoxin (TTX): 3 of 5
[3]; leptin 100 nM
  POMC cells with decreased IPSC frequency of cells tested: 5 out of 15
[3]; leptin 100 nM, FIG. 3d, 5 cells
  effect on frequency of IPSCs in POMC cells: decreased the frequency of IPSCs
[3]; leptin 100 nM, in responding cells
  decrease of frequency of GABAergic IPSCs: 25%
[4]; leptin, 13 cells tested
  adjacent non-fluorescent cells with no effect: 5 and 5 of 13
  non-POMC ARC neurons depolarized: 3
  non-fluorescent ARC neurons hyperpolarized: 5

## D-Trp^8-γMSH (YVMGHFR[dW]DRFG)
POMC neurons [2]; D-Trp8-γMSH 7 nM
  effect on frequency of action potentials: decreased the frequency of action potentials
POMC neurons [1]; D-Trp8-γMSH 7 nM
  POMC neurons hyperpolarized of cells tested: 9 of 15
POMC neurons [1]; D-Trp8-γMSH, FIG. 4c
  effect on membrane potential of POMC neurons: hyperpolarizes POMC neurons
[3]; D-Trp8-γMSH 7 nM
  POMC neurons with increased IPSC frequency of cells tested: 3 of 4
[3]; D-Trp8-γMSH 7 nM, FIG. 4b
  effect on frequency of GABAergic IPSCs in POMC neurons: increases the frequency of GABAergic IPSCs

## picrotoxin
[3]
  effect on IPSCs: blocked all IPSCs

## N-acetyl (Leu^28, Leu^31) NPY (24-36) [Y2A]
Hypothalamic explants
  NPY release from hypothalamic explants: significantly decreased NPY release
  α-MSH release from hypothalamic explants: increase in α-MSH release
[3]; Y2A, n=8, P<0.004
  reduction of IPSC frequency: 44.4±9.3%

## Clc1cccc(N2CCNCC2)c1 [mCPP, 1-(3-Chlorophenyl)piperazine]
POMC neurons [1]
  effect on resting membrane potential of POMC neurons: depolarized POMC neurons

## met-enkephalin
POMC neurons [2]
  effect on spontaneous action potentials of POMC cells: inhibits all action potentials; also recorded: prevented spontaneous action potential generation
POMC neurons [1]
  effect on membrane potential of POMC neurons: hyperpolarizes POMC neurons

## PYY3-36
POMC neurons [2]; PYY3-36 10 nM, loose cell-attached, reversible, n=8
  increase in frequency of action potentials: 5 fold
POMC neurons [2]; PYY3-36 10 nM, whole-cell, n=22, P<0.05
  increase in frequency of action potentials over control: 93%
[5]
  increase in number of cells positive for c-fos vs saline: 2 fold
POMC neurons [1]; PYY3-36, whole cell
  POMC neurons depolarized of cells tested: 19 of the 22
[6]
  increase in number of arcuate cells positive for c-fos vs saline: 1.8 fold
  increase in proportion of POMC neurons that express c-fos vs saline: 2.6 fold
[6]; n=5, P<0.05
  number of arcuate cells positive for c-fos: 250±40
[4]; PYY3-36 25 nM, n=5, P<0.004
  hyperpolarization of unidentified, presumably NPY-containing, non-POMC neurons: 5.2±1.16 mV

## NPY
POMC neurons [1]; NPY, n=3, all POMC neurons tested
  average hyperpolarization of POMC neurons: 9±6 mV
[3]
  cells in which IPSCs were still inhibited in the presence of tetrodotoxin (TTX): 6 of 6
[3]; NPY 100 nM
  decrease of frequency of GABAergic IPSCs: 55%
  time to decrease of IPSC frequency: ≤ 3 min
[3]; NPY, FIG. 4a
  effect on frequency of mini IPSCs in POMC neurons: decreases the frequency of mini IPSCs

## NCCc1c[nH]c2ccc(O)cc12 [serotonin]
POMC neurons [1]; serotonin receptor agonists bath-applied four minutes, whole cell, n=4-8 per dose
  effect on resting membrane potential of POMC neurons: increased the resting membrane potential (depolarized)

## CCNC(C)Cc1cccc(C(F)(F)F)c1 (stereo not drawn) [Fenfluramine]
POMC neurons [2]
  increase in frequency of action potentials (firing rate) in POMC neurons: two fold increase
POMC neurons [2]; listed as d-FEN
  increase in frequency of action potentials (firing rate) in POMC neurons: doubling
POMC neurons [1]; fenfluramine, whole cell, dose dependent, n=4-8 per dose
  effect on membrane potential of POMC neurons: depolarized POMC neurons

## NC1=N[C@H](O)[C@H]2[C@H]3O[C@]4(O)O[C@@H]([C@@H](O)[C@@]2(N1)[C@@H]4O)[C@]3(O)CO [TTX, tetrodotoxin]
[3]
  effect on large amplitude IPSCs: abolished large IPSCs
